Data taken from ChEMBL document CHEMBL5649169 (ChemMedChem, 2018).

How the values were obtained:
[1] = biological target: AarF domain-containing protein kinase 1 (Homo sapiens) (UniProt Q86TW2); also: assay method not described here
[2] = biological target: Serine/threonine-protein kinase TAO2 (Homo sapiens) (UniProt Q9UL54); also: assay method not described here
[3] = biological target: Glutathione S-transferase omega-1 (Homo sapiens) (UniProt P78417); also: assay method not described here
[4] = biological target: Small ribosomal subunit protein uS9 (Homo sapiens) (UniProt P62249); also: assay method not described here
[5] = biological target: Serine/threonine-protein kinase B-raf (Homo sapiens) (UniProt P15056); also: assay method not described here
Chain of Serine/threonine-protein kinase B-raf (Homo sapiens) (P15056 whole entry): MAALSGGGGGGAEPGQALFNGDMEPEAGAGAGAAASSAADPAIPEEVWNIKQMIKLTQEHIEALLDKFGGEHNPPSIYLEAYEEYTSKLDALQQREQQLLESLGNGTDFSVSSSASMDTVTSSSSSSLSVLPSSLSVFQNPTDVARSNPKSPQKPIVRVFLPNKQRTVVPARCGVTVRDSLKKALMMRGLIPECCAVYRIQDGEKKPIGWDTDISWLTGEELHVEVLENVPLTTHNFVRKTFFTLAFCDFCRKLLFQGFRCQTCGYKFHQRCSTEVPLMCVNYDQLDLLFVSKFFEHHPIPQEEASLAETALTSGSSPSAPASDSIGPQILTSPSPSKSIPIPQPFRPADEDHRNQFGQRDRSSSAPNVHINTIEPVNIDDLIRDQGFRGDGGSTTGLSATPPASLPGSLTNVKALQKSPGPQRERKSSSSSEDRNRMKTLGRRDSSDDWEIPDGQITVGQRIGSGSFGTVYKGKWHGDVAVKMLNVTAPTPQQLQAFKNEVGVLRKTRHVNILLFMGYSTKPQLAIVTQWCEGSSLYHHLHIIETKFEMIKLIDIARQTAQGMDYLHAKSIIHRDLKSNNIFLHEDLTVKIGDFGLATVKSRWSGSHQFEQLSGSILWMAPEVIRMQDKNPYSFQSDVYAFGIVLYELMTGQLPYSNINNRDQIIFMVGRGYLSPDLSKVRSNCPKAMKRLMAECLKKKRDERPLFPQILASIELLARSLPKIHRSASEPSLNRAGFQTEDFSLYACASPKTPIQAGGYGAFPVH

[6] = biological target: DnaJ homolog subfamily C member 10 (Homo sapiens) (UniProt Q8IXB1); also: assay method not described here
[7] = biological target: Insulin receptor (Homo sapiens) (UniProt P06213); also: assay method not described here
[8] = biological target: Solute carrier family 35 member E1 (Homo sapiens) (UniProt Q96K37); also: assay method not described here
Chain of Solute carrier family 35 member E1 (Homo sapiens) (Q96K37 whole entry): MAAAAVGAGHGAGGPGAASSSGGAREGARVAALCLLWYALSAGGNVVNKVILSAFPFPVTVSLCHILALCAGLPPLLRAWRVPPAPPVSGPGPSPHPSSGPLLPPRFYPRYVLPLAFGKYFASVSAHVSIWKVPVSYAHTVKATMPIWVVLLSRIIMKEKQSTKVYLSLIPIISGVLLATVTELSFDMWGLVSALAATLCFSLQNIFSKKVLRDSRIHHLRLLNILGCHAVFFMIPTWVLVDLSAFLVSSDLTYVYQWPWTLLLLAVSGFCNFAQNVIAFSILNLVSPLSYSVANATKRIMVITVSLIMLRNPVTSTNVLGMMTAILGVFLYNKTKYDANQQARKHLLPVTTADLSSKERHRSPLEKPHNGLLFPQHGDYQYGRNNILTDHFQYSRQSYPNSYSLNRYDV

[9] = biological target: Ataxin-10 (Homo sapiens) (UniProt Q9UBB4); also: assay method not described here
Chain of Ataxin-10 (Homo sapiens) (Q9UBB4 whole entry): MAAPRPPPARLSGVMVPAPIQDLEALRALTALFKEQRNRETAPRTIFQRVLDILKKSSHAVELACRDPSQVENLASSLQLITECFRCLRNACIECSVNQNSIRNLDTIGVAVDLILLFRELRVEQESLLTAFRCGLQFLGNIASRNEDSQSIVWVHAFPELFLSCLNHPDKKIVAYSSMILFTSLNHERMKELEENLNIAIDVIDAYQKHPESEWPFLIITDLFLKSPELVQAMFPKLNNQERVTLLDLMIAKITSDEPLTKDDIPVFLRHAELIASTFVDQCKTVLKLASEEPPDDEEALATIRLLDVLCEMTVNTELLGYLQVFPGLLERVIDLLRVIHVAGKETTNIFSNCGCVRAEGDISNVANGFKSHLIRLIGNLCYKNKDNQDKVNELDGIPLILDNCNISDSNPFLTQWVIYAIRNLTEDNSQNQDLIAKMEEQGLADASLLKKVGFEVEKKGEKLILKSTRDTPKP

[10] = biological target: ATP synthase F(0) complex subunit f, mitochondrial (Homo sapiens) (UniProt P56134); also: assay method not described here
[11] = biological target: Activin receptor type-2B (Homo sapiens) (UniProt Q13705); also: assay method not described here
[12] = biological target: HLA class I histocompatibility antigen, A alpha chain (Homo sapiens) (UniProt P04439); also: assay method not described here
Chain of HLA class I histocompatibility antigen, A alpha chain (Homo sapiens) (P04439 whole entry): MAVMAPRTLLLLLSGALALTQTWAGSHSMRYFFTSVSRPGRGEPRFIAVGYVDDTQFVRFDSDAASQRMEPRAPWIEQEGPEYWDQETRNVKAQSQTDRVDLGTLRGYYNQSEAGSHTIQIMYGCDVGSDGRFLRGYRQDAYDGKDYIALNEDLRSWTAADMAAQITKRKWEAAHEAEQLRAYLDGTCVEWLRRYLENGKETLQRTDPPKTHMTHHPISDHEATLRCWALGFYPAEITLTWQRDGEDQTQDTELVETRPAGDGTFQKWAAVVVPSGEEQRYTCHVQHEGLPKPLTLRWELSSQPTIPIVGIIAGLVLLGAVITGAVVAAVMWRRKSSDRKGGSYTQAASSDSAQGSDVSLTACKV

[13] = biological target: Insulin-like growth factor 1 receptor (Homo sapiens) (UniProt P08069); also: assay method not described here
[14] = biological target: Cerebellar degeneration-related protein 2 (Homo sapiens) (UniProt Q01850); also: assay method not described here
Chain of Cerebellar degeneration-related protein 2 (Homo sapiens) (Q01850 whole entry): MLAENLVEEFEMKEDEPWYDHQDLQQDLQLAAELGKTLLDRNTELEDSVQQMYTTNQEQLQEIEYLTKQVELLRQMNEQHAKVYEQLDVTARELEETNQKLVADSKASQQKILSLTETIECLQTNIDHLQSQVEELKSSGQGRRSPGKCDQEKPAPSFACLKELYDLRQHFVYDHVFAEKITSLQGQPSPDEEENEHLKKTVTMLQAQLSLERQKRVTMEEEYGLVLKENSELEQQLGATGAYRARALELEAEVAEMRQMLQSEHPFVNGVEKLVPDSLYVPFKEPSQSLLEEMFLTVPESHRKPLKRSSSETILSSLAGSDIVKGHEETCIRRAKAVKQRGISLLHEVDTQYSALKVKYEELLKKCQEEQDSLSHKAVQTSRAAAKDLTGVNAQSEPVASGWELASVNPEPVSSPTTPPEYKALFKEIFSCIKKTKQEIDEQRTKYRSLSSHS

[15] = biological target: Serine/arginine-rich splicing factor 3 (Homo sapiens) (UniProt P84103); also: assay method not described here
Chain of Serine/arginine-rich splicing factor 3 (Homo sapiens) (P84103 whole entry): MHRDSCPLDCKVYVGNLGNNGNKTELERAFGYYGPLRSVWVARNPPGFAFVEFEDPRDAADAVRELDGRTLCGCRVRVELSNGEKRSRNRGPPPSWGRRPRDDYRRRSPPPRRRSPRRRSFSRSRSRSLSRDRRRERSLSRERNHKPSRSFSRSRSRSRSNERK

[16] = biological target: Serine/threonine-protein kinase ULK1 (Homo sapiens) (UniProt O75385); also: assay method not described here
[17] = biological target: Serine/arginine-rich splicing factor 7 (Homo sapiens) (UniProt Q16629); also: assay method not described here
[18] = biological target: Glycogen synthase kinase-3 beta (Homo sapiens) (UniProt P49841); also: assay method not described here
[19] = biological target: Cystatin-B (Homo sapiens) (UniProt P04080); also: assay method not described here
[20] = biological target: Histone H1.4 (Homo sapiens) (UniProt P10412); also: assay method not described here
[21] = biological target: 2-oxoglutarate dehydrogenase complex component E1 (Homo sapiens) (UniProt Q02218); also: assay method not described here
[22] = biological target: Mitogen-activated protein kinase 11 (Homo sapiens) (UniProt Q15759); also: assay method not described here
Chain of Mitogen-activated protein kinase 11 (Homo sapiens) (Q15759 whole entry): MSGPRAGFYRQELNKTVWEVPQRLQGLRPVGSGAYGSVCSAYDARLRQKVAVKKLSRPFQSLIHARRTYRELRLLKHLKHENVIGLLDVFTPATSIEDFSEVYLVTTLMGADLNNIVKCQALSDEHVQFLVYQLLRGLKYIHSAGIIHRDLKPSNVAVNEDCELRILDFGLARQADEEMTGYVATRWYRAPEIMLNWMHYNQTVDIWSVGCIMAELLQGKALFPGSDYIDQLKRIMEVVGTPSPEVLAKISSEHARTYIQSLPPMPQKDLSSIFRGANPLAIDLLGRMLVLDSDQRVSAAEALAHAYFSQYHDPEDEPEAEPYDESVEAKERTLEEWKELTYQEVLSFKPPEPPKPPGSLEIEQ

[23] = biological target: Chromodomain-helicase-DNA-binding protein 4 (Homo sapiens) (UniProt Q14839); also: assay method not described here
[24] = biological target: Mitochondrial antiviral-signaling protein (Homo sapiens) (UniProt Q7Z434); also: assay method not described here
[25] = biological target: Heat shock protein 75 kDa, mitochondrial (Homo sapiens) (UniProt Q12931); also: assay method not described here
[26] = biological target: Atlastin-3 (Homo sapiens) (UniProt Q6DD88); also: assay method not described here
[27] = biological target: Bifunctional purine biosynthesis protein ATIC (Homo sapiens) (UniProt P31939); also: assay method not described here
[28] = biological target: Phenylalanine--tRNA ligase alpha subunit (Homo sapiens) (UniProt Q9Y285); also: assay method not described here
Chain of Phenylalanine--tRNA ligase alpha subunit (Homo sapiens) (Q9Y285 whole entry): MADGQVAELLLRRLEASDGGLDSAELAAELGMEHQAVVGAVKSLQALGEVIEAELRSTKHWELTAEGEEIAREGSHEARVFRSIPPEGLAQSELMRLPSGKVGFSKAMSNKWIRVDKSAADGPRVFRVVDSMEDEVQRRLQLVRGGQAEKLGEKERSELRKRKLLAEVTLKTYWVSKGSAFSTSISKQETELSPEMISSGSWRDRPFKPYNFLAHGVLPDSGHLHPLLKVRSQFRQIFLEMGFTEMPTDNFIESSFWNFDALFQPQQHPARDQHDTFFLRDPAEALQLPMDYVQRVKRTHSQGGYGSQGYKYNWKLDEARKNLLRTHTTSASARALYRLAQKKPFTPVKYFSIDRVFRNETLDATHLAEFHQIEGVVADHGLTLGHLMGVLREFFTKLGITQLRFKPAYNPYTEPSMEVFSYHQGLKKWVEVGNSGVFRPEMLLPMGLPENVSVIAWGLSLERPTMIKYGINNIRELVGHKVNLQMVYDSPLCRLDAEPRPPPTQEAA

[29] = biological target: Microtubule-associated protein RP/EB family member 2 (Homo sapiens) (UniProt Q15555); also: assay method not described here
[30] = biological target: Coiled-coil domain-containing protein 22 (Homo sapiens) (UniProt O60826); also: assay method not described here
Chain of Coiled-coil domain-containing protein 22 (Homo sapiens) (O60826 whole entry, the tested form may be a part): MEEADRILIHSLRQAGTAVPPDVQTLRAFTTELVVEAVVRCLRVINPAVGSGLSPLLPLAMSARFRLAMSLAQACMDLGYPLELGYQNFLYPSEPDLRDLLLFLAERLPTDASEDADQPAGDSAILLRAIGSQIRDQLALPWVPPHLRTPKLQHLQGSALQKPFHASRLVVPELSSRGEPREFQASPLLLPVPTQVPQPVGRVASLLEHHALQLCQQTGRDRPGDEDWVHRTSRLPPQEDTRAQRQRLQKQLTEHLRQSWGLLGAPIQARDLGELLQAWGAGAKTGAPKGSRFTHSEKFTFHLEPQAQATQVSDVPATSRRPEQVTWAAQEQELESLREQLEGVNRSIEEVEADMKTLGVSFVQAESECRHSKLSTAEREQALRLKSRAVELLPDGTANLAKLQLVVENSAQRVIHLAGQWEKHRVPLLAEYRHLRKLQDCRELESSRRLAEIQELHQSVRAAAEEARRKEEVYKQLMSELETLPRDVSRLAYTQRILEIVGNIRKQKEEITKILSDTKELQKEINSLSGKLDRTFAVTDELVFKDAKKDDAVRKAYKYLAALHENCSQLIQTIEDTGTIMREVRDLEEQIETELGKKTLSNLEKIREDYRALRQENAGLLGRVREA

[31] = biological target: Ephrin type-A receptor 1 (Homo sapiens, UniProt P21709); assay: Inhibition of Nano Luc-fused full length C-terminal EPHA1 (unknown origin) expressed in HEK293T cells using NanoGlo as substrate incubated for 2 hrs in presence of tracer by NanoBRET assay; format: cell-based
[32] = biological target: Ephrin type-A receptor 4 (Homo sapiens, UniProt P54764); assay: Inhibition of Nano Luc-fused full length C-terminal EPHA4 (unknown origin) expressed in HEK293T cells using NanoGlo as substrate incubated for 2 hrs in presence of tracer by NanoBRET assay; format: cell-based
[33] = biological target: Protein arginine N-methyltransferase 5 (Homo sapiens) (UniProt O14744); also: assay method not described here
[34] = biological target: Neutral amino acid transporter B(0) (Homo sapiens) (UniProt Q15758); also: assay method not described here
Chain of Neutral amino acid transporter B(0) (Homo sapiens) (Q15758 whole entry): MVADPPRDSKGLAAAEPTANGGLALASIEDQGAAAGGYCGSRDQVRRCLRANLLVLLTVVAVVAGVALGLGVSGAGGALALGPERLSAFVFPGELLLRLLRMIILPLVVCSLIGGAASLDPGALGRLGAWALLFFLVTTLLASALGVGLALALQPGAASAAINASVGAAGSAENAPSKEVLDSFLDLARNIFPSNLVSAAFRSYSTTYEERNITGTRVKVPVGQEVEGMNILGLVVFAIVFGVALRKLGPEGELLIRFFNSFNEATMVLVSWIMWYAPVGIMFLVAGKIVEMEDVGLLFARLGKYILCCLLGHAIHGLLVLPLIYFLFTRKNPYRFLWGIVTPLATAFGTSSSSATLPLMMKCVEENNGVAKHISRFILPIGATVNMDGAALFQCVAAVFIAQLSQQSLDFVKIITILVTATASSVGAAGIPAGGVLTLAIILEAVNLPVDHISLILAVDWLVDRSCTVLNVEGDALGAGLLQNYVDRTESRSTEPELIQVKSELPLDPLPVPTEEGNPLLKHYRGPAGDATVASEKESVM

[35] = biological target: Non-selective voltage-gated ion channel VDAC3 (Homo sapiens) (UniProt Q9Y277); also: assay method not described here
[36] = biological target: Serine/threonine-protein kinase TAO3 (Homo sapiens) (UniProt Q9H2K8); also: assay method not described here
[37] = biological target: GTP-binding nuclear protein Ran (Homo sapiens) (UniProt P62826); also: assay method not described here
[38] = biological target: Zona pellucida sperm-binding protein 1 (Homo sapiens) (UniProt P60852); also: assay method not described here
[39] = biological target: Microtubule cross-linking factor 3 (Homo sapiens) (UniProt Q5TF21); also: assay method not described here
[40] = biological target: Tyrosine-protein kinase Yes (Homo sapiens) (UniProt P07947); also: assay method not described here
[41] = biological target: Transcription intermediary factor 1-beta (Homo sapiens) (UniProt Q13263); also: assay method not described here
[42] = biological target: Peripherin (Homo sapiens) (UniProt P41219); also: assay method not described here
[43] = biological target: Histone H1.5 (Homo sapiens) (UniProt P16401); also: assay method not described here
[44] = biological target: Transmembrane emp24 domain-containing protein 9 (Homo sapiens) (UniProt Q9BVK6); also: assay method not described here
Chain of Transmembrane emp24 domain-containing protein 9 (Homo sapiens) (Q9BVK6 whole entry, the tested form may be a part): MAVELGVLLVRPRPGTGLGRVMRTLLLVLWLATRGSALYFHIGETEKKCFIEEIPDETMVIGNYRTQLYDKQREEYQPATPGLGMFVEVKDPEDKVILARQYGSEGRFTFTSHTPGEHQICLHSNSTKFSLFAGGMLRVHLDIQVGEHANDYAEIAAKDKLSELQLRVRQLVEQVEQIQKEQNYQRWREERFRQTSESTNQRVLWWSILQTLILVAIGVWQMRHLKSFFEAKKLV

[45] = biological target: Holocytochrome c-type synthase (Homo sapiens) (UniProt P53701); also: assay method not described here

Cc1ccc(C(=O)Nc2cccc(C(F)(F)F)c2)cc1Nc1nc(-c2cccnc2)nc2c1cnn2C
ED50 [1]: 3.78 µM | ED50 [2]: 23.9 µM | ED50 [3]: 4.06 µM | ED50 [4]: 0.0497 µM | ED50 [5]: 3.64 µM | ED50 [6]: 4930 µM | ED50 [7]: 0.163 µM | ED50 [8]: 0.00439 µM | ED50 [9]: 0.103 µM | ED50 [10]: 0.0206 µM | ED50 [11]: 4.77 µM | ED50 [12]: 19000 µM | ED50 [13]: 0.0179 µM | ED50 [14]: 26.2 µM | ED50 [15]: 1.06 µM | ED50 [16]: 3.6 µM | ED50 [17]: 0.00758 µM | ED50 [18]: 4.03 µM | ED50 [19]: 6.95 µM | ED50 [20]: 62.9 µM | ED50 [21]: 0.0247 µM | ED50 [22]: 0.0255 µM | ED50 [23]: 0.00189 µM | ED50 [24]: 5.26 µM | ED50 [25]: 7.63 µM | ED50 [26]: 1.15 µM | ED50 [27]: 3.39 µM | ED50 [28]: 0.0419 µM | ED50 [29]: 0.0302 µM | ED50 [30]: 2.25 µM | IC50 [31]: 0.303 µM | IC50 [32]: 0.0076 µM | ED50 [33]: 18.2 µM | ED50 [34]: 0.0263 µM | ED50 [35]: 0.745 µM | ED50 [36]: 5.85 µM | ED50 [37]: 4.29 µM | ED50 [38]: 0.00241 µM | ED50 [39]: 11.9 µM | ED50 [40]: 2.58 µM | ED50 [41]: 59.2 µM | ED50 [42]: 0.178 µM | ED50 [43]: 4 µM | ED50 [44]: 67.9 µM | ED50 [45]: 0.0888 µM

Cc1ccc(C(=O)Nc2cccc(C(F)(F)F)c2)cc1Nc1nc(-c2cccnc2)nc2nn(C)cc12
ED50 [1]: 0.0933 µM | ED50 [2]: 4.27 µM | ED50 [3]: 0.0945 µM | ED50 [4]: 0.345 µM | ED50 [5]: 9.35 µM | ED50 [6]: 3.27 µM | ED50 [7]: 0.00863 µM | ED50 [8]: 55.3 µM | ED50 [9]: 1470 µM | ED50 [10]: 0.002 µM | ED50 [11]: 0.00453 µM | ED50 [12]: 0.0554 µM | ED50 [13]: 8.2 µM | ED50 [14]: 0.303 µM | ED50 [15]: 0.0813 µM | ED50 [16]: 0.55 µM | ED50 [17]: 0.258 µM | ED50 [18]: 0.0177 µM | ED50 [19]: 12.8 µM | ED50 [20]: 5.19 µM | ED50 [21]: 12.5 µM | ED50 [22]: 6.69 µM | ED50 [23]: 0.615 µM | ED50 [24]: 0.394 µM | ED50 [25]: 9 µM | ED50 [26]: 0.126 µM | ED50 [27]: 0.073 µM | ED50 [28]: 0.0801 µM | ED50 [29]: 35 µM | ED50 [30]: 0.598 µM | IC50 [31]: 16.8 µM | IC50 [32]: ~10 µM | ED50 [33]: 3 µM | ED50 [34]: 0.032 µM | ED50 [35]: 0.0233 µM | ED50 [36]: 0.0641 µM | ED50 [37]: 0.116 µM | ED50 [38]: 4.25 µM | ED50 [39]: 0.00526 µM | ED50 [40]: 3.56 µM | ED50 [41]: 0.0787 µM | ED50 [42]: 1.74 µM | ED50 [43]: 1000 µM | ED50 [44]: 0.00396 µM | ED50 [45]: 0.144 µM
